Experimental data reported in ChEMBL document CHEMBL1201862, “PubChem BioAssay data set” (2004).
Activity calls are given as the source filed them.

Key:
Salmon testes DNA = test: acridine orange-DNA binding displacement – biochemical, fluorescence polarization, cherry-picked samples, set 2, artefact control for KSHV LANA DNA-binding inhibitor project, dose response (AID 504727); set-up: species or system Salmonidae
[1] = biological target: Transitional endoplasmic reticulum ATPase (Homo sapiens, UniProt P55072, C522A); test: C522A mutant p97 ATPase inhibitors, dose response, counter-screen for p97 inhibitor project, biochemical, luminescence (AID 1544)
Sequence of Transitional endoplasmic reticulum ATPase (Homo sapiens, UniProt P55072, C522A) (P55072 2-806 C522A limits assumed): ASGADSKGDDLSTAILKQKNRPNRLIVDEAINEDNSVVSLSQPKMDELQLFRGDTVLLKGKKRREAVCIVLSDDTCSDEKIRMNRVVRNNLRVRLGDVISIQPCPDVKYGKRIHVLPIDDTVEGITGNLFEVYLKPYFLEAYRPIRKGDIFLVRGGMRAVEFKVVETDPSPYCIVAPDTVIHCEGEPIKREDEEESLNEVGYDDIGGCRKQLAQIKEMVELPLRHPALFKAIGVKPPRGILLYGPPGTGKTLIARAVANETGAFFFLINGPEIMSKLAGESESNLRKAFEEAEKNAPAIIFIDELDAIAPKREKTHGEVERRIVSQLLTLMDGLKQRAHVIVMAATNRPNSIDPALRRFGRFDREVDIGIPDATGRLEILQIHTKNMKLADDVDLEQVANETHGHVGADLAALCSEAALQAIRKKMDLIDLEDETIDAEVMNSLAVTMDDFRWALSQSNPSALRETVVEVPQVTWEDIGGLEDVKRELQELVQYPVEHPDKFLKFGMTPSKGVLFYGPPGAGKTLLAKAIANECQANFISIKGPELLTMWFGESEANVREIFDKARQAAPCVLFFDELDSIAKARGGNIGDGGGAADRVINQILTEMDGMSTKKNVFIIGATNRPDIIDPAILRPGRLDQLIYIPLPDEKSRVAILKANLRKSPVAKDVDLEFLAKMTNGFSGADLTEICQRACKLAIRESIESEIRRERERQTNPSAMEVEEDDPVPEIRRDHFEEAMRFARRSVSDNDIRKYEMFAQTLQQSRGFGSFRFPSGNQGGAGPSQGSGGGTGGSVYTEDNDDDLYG

[2] = A cytotoxicity screen of small molecule inhibitors of the PhoP region in Salmonella typhi identified in the primary screen. [Related pubchem assays: 1850, 1864, 1985 ]; assay type: functional
NS3 = NS3 (Hepatitis C virus, UniProt A3EZJ3); test: PubChem AID 2173; set-up: species or system Hepacivirus hominis
Sequence of NS3 (A3EZJ3 whole entry): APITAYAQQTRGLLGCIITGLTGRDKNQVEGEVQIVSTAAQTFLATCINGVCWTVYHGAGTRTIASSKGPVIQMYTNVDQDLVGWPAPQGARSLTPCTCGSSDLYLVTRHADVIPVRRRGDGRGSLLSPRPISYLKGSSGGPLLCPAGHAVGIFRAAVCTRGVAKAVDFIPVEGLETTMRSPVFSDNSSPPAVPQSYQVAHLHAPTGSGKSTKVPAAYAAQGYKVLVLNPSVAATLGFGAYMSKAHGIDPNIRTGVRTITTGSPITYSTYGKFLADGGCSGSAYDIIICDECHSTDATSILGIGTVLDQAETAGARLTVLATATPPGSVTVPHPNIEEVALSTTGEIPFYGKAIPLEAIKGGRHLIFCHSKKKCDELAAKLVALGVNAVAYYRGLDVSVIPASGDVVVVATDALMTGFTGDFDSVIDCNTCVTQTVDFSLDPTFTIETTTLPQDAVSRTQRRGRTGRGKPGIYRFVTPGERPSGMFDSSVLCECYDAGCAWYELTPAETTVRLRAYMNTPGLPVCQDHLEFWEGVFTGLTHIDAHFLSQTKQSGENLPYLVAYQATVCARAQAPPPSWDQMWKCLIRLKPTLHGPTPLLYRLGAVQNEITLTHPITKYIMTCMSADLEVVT

HeLa = test: viability loss in HeLa cells – cell-based, 24 h, cherry-picked samples, cytotoxicity control, dose response (AID 504726); assay type: functional; settings: Homo sapiens;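 further: potency for cytotoxicity as loss of luminescence signal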
Protein RecA = biological target: T1, Protein RecA (Mycobacterium tuberculosis, UniProt P9WHJ3); test: Fluorescence Cell-Free Homogeneous Dose Retest to Identify Inhibitors of RecA-Intein Splicing Activity. [Related pubchem assays (depositor defined):AID2097, AID2223, AID489010, AID492950]; assay type: functional
T1 sequence (P9WHJ3 whole entry): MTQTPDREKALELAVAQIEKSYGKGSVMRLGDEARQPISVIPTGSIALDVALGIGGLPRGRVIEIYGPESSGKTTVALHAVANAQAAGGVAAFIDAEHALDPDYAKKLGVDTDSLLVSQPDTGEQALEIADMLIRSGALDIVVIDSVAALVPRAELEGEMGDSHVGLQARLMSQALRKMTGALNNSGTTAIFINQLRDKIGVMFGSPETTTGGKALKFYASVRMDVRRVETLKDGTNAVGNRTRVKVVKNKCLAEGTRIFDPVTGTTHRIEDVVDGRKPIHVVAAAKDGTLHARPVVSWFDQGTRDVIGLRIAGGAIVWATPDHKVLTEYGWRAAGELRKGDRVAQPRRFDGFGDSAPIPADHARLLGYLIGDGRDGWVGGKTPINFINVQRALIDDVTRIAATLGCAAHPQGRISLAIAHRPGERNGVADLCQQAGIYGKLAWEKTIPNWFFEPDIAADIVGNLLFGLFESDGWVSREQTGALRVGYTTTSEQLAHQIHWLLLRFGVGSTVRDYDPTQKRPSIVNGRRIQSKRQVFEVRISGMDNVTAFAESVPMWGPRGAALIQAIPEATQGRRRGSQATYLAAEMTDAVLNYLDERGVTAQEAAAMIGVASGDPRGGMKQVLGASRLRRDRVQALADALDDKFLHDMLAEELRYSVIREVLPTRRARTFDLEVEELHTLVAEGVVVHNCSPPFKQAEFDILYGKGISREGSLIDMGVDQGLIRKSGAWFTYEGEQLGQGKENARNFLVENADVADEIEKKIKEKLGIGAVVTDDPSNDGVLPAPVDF

[3] = biological target: T2, Histone-lysine N-methyltransferase NSD2 (Homo sapiens, UniProt O96028); assay type: biochemical
T2 sequence (O96028 whole entry): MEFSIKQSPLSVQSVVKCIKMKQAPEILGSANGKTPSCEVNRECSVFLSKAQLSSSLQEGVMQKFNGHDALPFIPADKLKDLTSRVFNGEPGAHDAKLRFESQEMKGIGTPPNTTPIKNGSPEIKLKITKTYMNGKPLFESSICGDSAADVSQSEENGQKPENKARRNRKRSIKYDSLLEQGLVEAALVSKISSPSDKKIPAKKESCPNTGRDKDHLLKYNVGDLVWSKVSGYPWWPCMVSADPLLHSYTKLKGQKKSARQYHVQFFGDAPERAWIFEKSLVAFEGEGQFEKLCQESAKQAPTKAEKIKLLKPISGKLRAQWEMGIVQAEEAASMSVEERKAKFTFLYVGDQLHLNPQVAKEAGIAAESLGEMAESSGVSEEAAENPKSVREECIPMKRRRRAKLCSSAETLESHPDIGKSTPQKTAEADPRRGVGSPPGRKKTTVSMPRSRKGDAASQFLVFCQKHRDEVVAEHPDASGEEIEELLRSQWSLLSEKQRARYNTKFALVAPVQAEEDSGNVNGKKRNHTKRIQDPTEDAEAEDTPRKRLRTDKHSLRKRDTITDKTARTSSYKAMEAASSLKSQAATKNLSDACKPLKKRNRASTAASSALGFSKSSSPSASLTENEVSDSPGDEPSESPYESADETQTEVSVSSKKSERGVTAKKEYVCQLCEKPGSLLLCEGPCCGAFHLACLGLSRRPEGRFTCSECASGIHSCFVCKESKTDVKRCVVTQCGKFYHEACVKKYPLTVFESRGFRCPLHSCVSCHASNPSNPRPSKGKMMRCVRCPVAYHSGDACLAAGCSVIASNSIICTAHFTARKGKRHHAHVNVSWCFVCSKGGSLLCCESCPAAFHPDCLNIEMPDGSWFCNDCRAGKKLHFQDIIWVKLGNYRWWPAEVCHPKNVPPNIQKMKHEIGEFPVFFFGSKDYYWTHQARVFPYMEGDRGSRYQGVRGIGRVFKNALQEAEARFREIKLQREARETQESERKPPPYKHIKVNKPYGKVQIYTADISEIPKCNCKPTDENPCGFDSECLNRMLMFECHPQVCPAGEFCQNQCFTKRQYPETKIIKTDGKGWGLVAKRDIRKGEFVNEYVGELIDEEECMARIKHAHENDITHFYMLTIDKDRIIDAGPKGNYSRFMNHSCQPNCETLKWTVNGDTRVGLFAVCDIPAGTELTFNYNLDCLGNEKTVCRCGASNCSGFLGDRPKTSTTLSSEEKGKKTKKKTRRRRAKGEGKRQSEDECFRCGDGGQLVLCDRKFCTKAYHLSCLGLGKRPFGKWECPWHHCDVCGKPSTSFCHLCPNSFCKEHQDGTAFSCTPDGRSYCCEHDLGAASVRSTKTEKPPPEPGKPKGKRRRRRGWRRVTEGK

[4] = biological target: Transitional endoplasmic reticulum ATPase (Homo sapiens, UniProt P55072); test: p97 ATPase inhibitors, dose response, biochemical (AID 1534)
Sequence of Transitional endoplasmic reticulum ATPase (Homo sapiens, UniProt P55072) (P55072 whole entry): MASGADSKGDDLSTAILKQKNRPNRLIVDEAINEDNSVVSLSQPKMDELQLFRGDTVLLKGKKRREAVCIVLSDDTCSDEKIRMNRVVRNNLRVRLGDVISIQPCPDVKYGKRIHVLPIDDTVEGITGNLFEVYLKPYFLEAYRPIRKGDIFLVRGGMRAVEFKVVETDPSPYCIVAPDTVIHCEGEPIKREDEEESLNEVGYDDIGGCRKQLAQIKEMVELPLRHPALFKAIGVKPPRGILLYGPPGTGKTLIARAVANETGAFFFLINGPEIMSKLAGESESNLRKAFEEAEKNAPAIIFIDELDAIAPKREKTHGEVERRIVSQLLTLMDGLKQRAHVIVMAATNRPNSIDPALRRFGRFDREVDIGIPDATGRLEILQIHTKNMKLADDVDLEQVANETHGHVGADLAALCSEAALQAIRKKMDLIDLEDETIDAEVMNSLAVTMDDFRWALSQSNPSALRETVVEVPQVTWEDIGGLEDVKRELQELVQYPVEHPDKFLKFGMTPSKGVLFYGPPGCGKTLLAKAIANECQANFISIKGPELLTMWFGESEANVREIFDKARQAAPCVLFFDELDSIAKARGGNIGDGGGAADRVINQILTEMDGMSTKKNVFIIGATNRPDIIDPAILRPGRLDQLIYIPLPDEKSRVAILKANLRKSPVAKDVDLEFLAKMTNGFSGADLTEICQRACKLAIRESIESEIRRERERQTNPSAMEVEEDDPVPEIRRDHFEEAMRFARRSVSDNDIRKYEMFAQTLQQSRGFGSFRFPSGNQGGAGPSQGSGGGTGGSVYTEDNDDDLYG

Protein Rev = Protein Rev (Human immunodeficiency virus type 1 group M subtype B (isolate HXB2)(HIV-1), UniProt P04618); test: blockers of HIV Rev/RRE RNA complex – biochemical, fluorescence polarization, HIV-1, dose response (AID 434976); set-up: species or system Human immunodeficiency virus 1
Sequence of Protein Rev (P04618 whole entry): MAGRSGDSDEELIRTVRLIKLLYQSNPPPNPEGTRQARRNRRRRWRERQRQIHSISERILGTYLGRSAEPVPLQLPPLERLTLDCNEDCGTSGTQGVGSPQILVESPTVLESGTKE

[5] = biological target: Female germline-specific tumor suppressor gld-1 (Caenorhabditis elegans, UniProt Q17339); test: blockers of GLD-1/TGE RNA complex formation – biochemical, fluorescence polarization, C. elegans, dose response (AID 2802);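 further: fluorescence polarization of labeled TGE RNA bound by purified gld-1 protein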
Sequence of Female germline-specific tumor suppressor gld-1 (Q17339 whole entry): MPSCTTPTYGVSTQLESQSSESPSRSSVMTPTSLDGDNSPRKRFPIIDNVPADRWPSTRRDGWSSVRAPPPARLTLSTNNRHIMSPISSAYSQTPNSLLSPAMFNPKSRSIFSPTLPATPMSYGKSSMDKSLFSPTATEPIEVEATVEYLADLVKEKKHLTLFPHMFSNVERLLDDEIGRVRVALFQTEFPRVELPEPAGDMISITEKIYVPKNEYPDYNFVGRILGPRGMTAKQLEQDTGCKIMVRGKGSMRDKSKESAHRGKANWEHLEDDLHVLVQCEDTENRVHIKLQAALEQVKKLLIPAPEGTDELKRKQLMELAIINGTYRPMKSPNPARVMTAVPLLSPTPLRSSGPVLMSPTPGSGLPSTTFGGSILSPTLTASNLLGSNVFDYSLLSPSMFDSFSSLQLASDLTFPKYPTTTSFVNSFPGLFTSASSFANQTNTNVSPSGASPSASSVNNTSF

SMILES | AC50 (Salmon testes DNA) | IC50 [1] | EC50 [2] | IC50 (NS3) | AC50 (HeLa) | EC50 (Protein RecA) | AC50 [3] | IC50 [4] | IC50 (Protein Rev) | IC50 [5]
CCCCn1c(NS(=O)(=O)c2ccc(C)cc2)c(S(=O)(=O)c2ccccc2)c2nc3ccccc3nc21 | 43.7 µM (active) | > 50 µM (not active) | > 50 µM (active) | 0.662 µM (active) | 313 µM (active) | > 380 µM (inconclusive) | 12.2 µM (active) | > 50 µM (not active) | – | –
Nc1cccc2c1C(=O)N(Cc1cccc(Cl)c1)C2=O | – | – | – | – | – | – | – | – | 17.9 µM (not active) | 4.97 µM (active)
